Measured values reported in patent publication US20250228835A1, “PYRIDINYLOXYPYRIDINES AND RELATED COMPOUNDS AND THEIR USE IN TREATING MEDICAL CONDITIONS” (Rectify Pharmaceuticals, Inc., priority 2024, published 2025).

Legend:
ABCA4 P1380L = target: T1, ABCA4 P1380L (Homo sapiens, UniProt P78363, P1380L); experiment: A4 correction dose-response assay: ABCA4 P1380L HiBit protein expression; assay type: cell-based; settings: HEK-293 cells stably expressing HiBit-tagged ABCA4 P1380L; 24 h treatment; top concentration 30 μM; read-out: ABCA4 P1380L EC50, Emax
T1 construct: expressed in transfected cells
T1 sequence (P78363 whole entry P1380L): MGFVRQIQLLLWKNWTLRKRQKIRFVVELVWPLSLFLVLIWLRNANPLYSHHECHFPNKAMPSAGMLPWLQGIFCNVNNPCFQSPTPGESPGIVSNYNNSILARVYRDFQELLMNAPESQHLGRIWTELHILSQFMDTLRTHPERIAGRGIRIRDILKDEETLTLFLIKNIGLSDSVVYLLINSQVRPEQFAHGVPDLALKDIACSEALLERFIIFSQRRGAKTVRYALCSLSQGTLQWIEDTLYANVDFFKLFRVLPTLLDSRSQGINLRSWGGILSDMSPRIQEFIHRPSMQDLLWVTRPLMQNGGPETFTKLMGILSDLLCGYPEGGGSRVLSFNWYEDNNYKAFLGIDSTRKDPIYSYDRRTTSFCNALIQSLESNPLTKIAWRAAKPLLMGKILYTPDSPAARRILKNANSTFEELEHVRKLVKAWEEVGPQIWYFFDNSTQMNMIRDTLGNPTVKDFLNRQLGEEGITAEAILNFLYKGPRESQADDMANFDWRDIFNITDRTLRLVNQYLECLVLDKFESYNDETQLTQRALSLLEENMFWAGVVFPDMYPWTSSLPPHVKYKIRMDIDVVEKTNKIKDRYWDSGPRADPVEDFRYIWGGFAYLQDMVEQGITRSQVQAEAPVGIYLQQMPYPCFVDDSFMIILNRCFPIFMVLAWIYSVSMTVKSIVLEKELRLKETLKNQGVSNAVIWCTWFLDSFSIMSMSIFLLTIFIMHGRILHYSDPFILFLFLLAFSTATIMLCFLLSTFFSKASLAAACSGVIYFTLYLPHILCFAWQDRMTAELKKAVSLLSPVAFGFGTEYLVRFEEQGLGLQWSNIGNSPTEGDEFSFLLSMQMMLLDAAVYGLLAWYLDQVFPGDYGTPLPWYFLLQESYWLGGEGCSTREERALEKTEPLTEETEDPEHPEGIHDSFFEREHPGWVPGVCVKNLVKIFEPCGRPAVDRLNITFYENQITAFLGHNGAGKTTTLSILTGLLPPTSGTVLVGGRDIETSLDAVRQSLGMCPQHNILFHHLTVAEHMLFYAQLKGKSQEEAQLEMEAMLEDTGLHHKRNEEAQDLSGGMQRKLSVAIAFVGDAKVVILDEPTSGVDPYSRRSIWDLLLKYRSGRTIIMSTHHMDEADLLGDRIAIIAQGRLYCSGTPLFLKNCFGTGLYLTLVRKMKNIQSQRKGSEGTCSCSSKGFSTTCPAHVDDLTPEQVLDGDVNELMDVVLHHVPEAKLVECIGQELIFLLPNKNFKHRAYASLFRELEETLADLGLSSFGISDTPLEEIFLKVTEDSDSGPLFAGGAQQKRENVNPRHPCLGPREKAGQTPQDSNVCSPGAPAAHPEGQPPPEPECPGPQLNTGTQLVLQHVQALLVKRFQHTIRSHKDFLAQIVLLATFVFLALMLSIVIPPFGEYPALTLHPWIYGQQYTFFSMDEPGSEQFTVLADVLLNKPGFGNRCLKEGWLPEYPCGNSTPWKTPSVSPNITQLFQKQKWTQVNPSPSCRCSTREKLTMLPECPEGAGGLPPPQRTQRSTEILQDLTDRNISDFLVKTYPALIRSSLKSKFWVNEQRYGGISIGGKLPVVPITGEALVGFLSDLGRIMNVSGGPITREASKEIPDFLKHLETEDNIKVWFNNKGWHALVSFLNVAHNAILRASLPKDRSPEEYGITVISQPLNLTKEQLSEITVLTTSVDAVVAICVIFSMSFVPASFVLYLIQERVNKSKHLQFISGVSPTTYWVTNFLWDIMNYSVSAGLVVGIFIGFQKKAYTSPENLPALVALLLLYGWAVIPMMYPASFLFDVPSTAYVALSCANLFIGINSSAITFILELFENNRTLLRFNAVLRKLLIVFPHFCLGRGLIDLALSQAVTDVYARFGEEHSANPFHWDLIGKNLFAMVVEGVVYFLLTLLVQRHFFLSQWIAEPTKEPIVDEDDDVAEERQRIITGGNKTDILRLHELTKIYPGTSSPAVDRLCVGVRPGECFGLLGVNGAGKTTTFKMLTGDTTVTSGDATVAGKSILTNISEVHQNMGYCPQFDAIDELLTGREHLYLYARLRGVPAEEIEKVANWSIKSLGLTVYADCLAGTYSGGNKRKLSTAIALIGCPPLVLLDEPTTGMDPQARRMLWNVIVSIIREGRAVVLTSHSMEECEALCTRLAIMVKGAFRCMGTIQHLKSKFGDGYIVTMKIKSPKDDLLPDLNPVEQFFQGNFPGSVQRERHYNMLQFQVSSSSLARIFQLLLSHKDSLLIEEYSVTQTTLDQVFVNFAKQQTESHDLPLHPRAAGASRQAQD
In short: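 Cells transfected with HiBit-tagged human ABCA4 P1380L cDNA were treated for 24 h at 37°C with an eleven-point dilution series (top final 30 μM, 0.3% DMSO).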

ABCC6 WT = target: T2, ABCC6 WT (Homo sapiens, UniProt O95255); experiment: ABCC6 WT assay: HiBit protein expression; assay type: cell-based; settings: HEK-293 cells transiently expressing HiBit-tagged ABCC6 WT; 24 h treatment; top concentration 20 μM; read-out: ABCC6 WT EC50, Emax
T2 construct: expressed in transfected cells; host or cells: HEK-293 (transient, Lipofectamine 2000)
T2 sequence (O95255 whole entry): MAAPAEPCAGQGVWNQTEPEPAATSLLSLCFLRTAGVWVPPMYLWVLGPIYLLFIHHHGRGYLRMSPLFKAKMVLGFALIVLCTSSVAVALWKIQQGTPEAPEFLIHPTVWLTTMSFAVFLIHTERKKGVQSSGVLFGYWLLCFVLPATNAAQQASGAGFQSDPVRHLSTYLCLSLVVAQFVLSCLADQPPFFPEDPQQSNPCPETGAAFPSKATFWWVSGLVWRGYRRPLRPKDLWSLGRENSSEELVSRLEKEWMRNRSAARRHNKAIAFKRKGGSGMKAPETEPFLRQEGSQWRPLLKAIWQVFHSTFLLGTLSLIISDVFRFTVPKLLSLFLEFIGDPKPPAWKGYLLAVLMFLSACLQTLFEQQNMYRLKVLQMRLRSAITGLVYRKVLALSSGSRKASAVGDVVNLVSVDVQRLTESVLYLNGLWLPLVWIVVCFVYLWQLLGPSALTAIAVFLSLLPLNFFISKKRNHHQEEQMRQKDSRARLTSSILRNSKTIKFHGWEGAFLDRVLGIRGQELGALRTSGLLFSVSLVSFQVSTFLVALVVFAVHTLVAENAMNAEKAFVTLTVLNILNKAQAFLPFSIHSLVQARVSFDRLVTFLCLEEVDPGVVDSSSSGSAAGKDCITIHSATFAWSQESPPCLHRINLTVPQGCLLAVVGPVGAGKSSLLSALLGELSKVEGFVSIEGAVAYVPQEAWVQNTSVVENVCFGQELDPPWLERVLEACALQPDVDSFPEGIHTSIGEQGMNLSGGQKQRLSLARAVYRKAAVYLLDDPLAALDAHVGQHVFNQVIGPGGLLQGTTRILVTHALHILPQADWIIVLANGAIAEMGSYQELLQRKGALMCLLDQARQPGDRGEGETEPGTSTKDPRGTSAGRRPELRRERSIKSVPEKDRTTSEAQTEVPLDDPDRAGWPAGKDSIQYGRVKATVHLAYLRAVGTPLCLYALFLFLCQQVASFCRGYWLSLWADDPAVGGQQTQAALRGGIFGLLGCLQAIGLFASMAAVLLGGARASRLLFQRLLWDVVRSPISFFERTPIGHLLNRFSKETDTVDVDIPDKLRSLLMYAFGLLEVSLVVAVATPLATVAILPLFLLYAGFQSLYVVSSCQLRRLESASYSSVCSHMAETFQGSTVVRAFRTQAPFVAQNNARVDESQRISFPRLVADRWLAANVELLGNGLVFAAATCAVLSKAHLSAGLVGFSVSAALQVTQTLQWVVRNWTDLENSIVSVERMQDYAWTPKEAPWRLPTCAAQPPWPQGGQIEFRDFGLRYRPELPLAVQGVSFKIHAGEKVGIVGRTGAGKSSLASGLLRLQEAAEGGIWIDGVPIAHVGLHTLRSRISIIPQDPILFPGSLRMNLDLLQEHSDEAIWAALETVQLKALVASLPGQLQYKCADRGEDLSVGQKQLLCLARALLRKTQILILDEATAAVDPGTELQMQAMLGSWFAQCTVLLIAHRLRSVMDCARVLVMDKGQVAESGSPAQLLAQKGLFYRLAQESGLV
In short: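 HEK-293 cells transiently transfected with HiBit-tagged human ABCC6 WT cDNA, seeded 24 h post-transfection, treated 24 h at 37° C with ten 2-fold doses (top 20 μM final, 0.15% DMSO). HiBit lytic luminescence reports protein expression; Emax and EC50 derived.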

Row | Compound | EC50 (ABCA4 P1380L) [µM] | EC50 (ABCC6 WT) [nM]
1 | Cc1cc(C)c(Oc2nc(-c3cncc(Cl)c3)ccc2S(=O)(=O)NC(c2ccccn2)C(F)(F)F)c(C)c1 (single isomer, unassigned) [Compound I-79] | < 25 | 1000 to 10000
2 | Cc1cc(C)c(Oc2nc(-c3cncc(Cl)c3)ccc2S(=O)(=O)NC(c2ccccn2)C(F)(F)F)c(C)c1 (single isomer, unassigned) [Compound I-80] | > 25 | ≥ 25000
3 | Cc1cc(C)c(Oc2nc(-c3cncc(C(N)=O)c3)ccc2NS(C)(=O)=O)c(C2CC2)n1 [Compound I-1] | < 1 | < 1000
4 | Cc1cc(C)c(Oc2nc(-c3cn[nH]c3)ccc2NS(C)(=O)=O)c(C2CC2)c1 [Compound I-2] | > 25 | 10000 to 25000
5 | Cc1ccc(Oc2nc(-c3cncc(C#N)c3)ccc2NS(C)(=O)=O)c(C)n1 [Compound I-3] | < 1 | < 1000
6 | Cc1cc(C)c(Oc2nc(-c3cncc(Cl)c3)ccc2N(C2CC2)S(C)(=O)=O)c(C)c1 [Compound I-42] | 1 to 10 | 1000 to 10000
7 | Cc1cc(C)c(Oc2nc(N3CC4(C3)CN(S(=O)(=O)C3CC3)C4)ccc2NS(C)(=O)=O)c(C)c1 [Compound I-43] | > 25 | ≥ 25000
8 | Cc1cc(C)c(Oc2nc(N3CCN(S(=O)(=O)C4CC4)CC3)ccc2NS(C)(=O)=O)c(C)c1 [Compound I-44] | 10 to 25 | 1000 to 10000
9 | Cc1cc(C)c(Oc2nc(-c3ccc(C#N)nc3)ccc2NS(C)(=O)=O)c(C)c1 [Compound I-45] | < 1 | < 1000
10 | Cc1cc(C)c(Oc2nc(-c3cncc(Cl)c3)ccc2NS(C)(=O)=O)c(C)n1 [Compound I-46] | < 1 | < 1000
11 | Cc1cc(C)c(Oc2nc(N3CCN(C(=O)C4CC4)CC3)ccc2NS(C)(=O)=O)c(C)c1 [Compound I-47] | > 25 | 1000 to 10000
12 | Cc1cc(C)c(Oc2nc(-c3cncc(Cl)c3)ccc2N(C)S(C)(=O)=O)c(C)c1 [Compound I-48] | > 25 | < 1000
13 | Cc1cc(C)c(Oc2nc(-c3cncc(Cl)c3)ccc2NS(=O)(=O)C2CC2)c(C)c1 [Compound I-49] | > 25 | < 1000
14 | CC(=O)NC1CN(c2ccc(NS(=O)(=O)c3cccnc3)c(Oc3c(C)cc(C)cc3C3CC3)n2)C1 [Compound I-50] | > 25 | < 25000
15 | COC1CC(S(=O)(=O)Nc2ccc(-c3cncc(Cl)c3)nc2Oc2c(C)cc(C)cc2C)C1 (stereo not drawn) [Compound I-51] | < 1 | < 1000
16 | Cc1cc(C)c(Oc2nc(-c3cncc(Cl)c3)ccc2N(C)S(=O)(=O)c2cnn(C)c2)c(C2CC2)c1 [Compound I-52] | 1 to 10 | < 1000
17 | Cc1cc(C)c(Oc2nc(-c3cncc(Cl)c3)ccc2N(C)S(=O)(=O)c2cccnc2)c(C2CC2)c1 [Compound I-53] | 1 to 10 | 1000 to 10000
18 | Cc1cc(C)c(Oc2nc(-c3cncc(Cl)c3)ccc2NS(=O)(=O)c2cccnc2)c(C2CC2)c1 [Compound I-54] | < 25 | < 1000
19 | Cc1cc(C)c(Oc2nc(-c3cncc(Cl)c3)ccc2NS(C)(=O)=O)c(C)c1 [Compound I-55] | > 25 | < 1000
20 | Cc1cc(C)c(Oc2cc(-c3cncc(Cl)c3)ncc2NS(C)(=O)=O)c(C)c1 [Compound I-56] | > 25 | < 1000
21 | Cc1cc(C)c(Oc2nc(-c3cncc(Cl)c3)ccc2NS(C)(=O)=O)c(C2CC2)c1 [Compound I-57] | 1 to 10 | < 1000
22 | Cc1cc(C)c(Oc2nc(-c3cncc(Cl)c3)ccc2NS(=O)(=O)c2cnn(C)c2)c(C2CC2)c1 [Compound I-58] | > 25 | < 25000
23 | Cc1cc(C)c(Oc2cc(-c3cncc(Cl)c3)cnc2N(C)S(=O)(=O)c2cnn(C)c2)c(C)c1 [Compound I-59] | 1 to 10 | ≥ 25000
24 | Cc1cc(C)c(Oc2cc(-c3cncc(Cl)c3)cnc2NS(C)(=O)=O)c(C)c1 [Compound I-60] | < 25 | 1000 to 10000
25 | Cc1cc(C)c(Oc2cc(-c3cncc(Cl)c3)cnc2NS(=O)(=O)c2cnn(C)c2)c(C)c1 [Compound I-61] | > 25 | 1000 to 10000
26 | Cc1cc(C)c(Oc2nc(-c3cncc(Cl)c3)ccc2NS(=O)(=O)Cc2ccccn2)c(C)c1 [Compound I-62] | > 25 | ≥ 25000
27 | COc1ccc2nc[nH]c2c1S(=O)(=O)Nc1ccc(-c2cncc(Cl)c2)nc1Oc1c(C)cc(C)cc1C [Compound I-63] | 10 to 25 | < 1000

Row | Compound | EC50 (ABCA4 P1380L) [µM] | EC50 (ABCC6 WT) [nM]
28 | Cc1cc(C)c(Oc2nc(-c3cncc(Cl)c3)ccc2N(C)S(=O)(=O)Cc2ccccc2)c(C)c1 [Compound I-64] | 1 to 10 | < 25000
29 | Cc1cc(C)c(Oc2nc(-c3cncc(Cl)c3)ccc2NS(=O)(=O)Cc2ccccc2)c(C)c1 [Compound I-65] | > 25 | ≥ 25000
30 | Cc1cc(C)c(Oc2nc(-c3cncc(Cl)c3)ccc2N2CCCCS2(=O)=O)c(C)c1 [Compound I-66] | > 25 | 1000 to 10000
31 | Cc1cc(C)c(Oc2nc(-c3cncc(Cl)c3)ccc2N2CCCS2(=O)=O)c(C)c1 [Compound I-67] | > 25 | 1000 to 10000
32 | Cc1cc(C)c(Oc2nc(-c3cncc(Cl)c3)ccc2NS(=O)(=O)C(C)(C)C)c(C)c1 [Compound I-68] | > 25 | ≥ 25000
33 | Cc1cc(C)c(Oc2nc(-c3cncc(Cl)c3)ccc2N(C)S(=O)(=O)c2cccnc2)c(C)c1 [Compound I-69] | 1 to 10 | < 1000
34 | Cc1cc(C)c(Oc2nc(-c3cncc(Cl)c3)ccc2N(C)S(=O)(=O)c2cnn(C)c2)c(C)c1 [Compound I-70] | > 25 | < 1000
35 | Cc1cc(C)c(Oc2nc(-c3cncc(Cl)c3)ccc2NS(=O)(=O)c2cccnc2)c(C)c1 [Compound I-71] | > 25 | < 1000
36 | Cc1cc(C)c(Oc2nc(-c3cncc(Cl)c3)ccc2NS(=O)(=O)c2cnn(C)c2)c(C)c1 [Compound I-72] | > 25 | 1000 to 10000
37 | CNS(=O)(=O)c1ccc(N2CCN(C(=O)C3CC3)CC2)nc1Oc1c(C)cc(C)cc1C [Compound I-73] | < 1 | 1000 to 10000
38 | COC1CC(NS(=O)(=O)c2ccc(-c3cncc(Cl)c3)nc2Oc2c(C)cc(C)cc2C2CC2)C1 (stereo not drawn) [Compound I-74] | 1 to 10 | 1000 to 10000
39 | Cc1cc(C)c(Oc2nc(-c3cncc(Cl)c3)ccc2S(=O)(=O)Nc2cnn(C)c2)c(C2CC2)c1 [Compound I-75] | 1 to 10 | < 25000
40 | Cc1cc(C)c(Oc2nc(-c3cncc(Cl)c3)ccc2S(=O)(=O)NCc2ccccn2)c(C2CC2)c1 [Compound I-76] | > 25 | ≥ 25000
41 | CNS(=O)(=O)c1ccc(-c2cncc(Cl)c2)nc1Oc1c(C)cc(C)cc1C1CC1 [Compound I-77] | < 25 | < 1000
42 | COC1CC(NS(=O)(=O)c2ccc(-c3cncc(Cl)c3)nc2Oc2c(C)cc(C)cc2C)C1 (stereo not drawn) [Compound I-78] | 1 to 10 | < 1000
43 | Cc1cc(C)c(Oc2nc(-c3cncc(Cl)c3)ccc2S(=O)(=O)N[C@H](c2ccccc2)C(F)(F)F)c(C)c1 [Compound I-81] | 1 to 10 | 1000 to 10000
44 | Cc1cc(C)c(Oc2nc(-c3cncc(Cl)c3)ccc2S(=O)(=O)N[C@@H](c2ccccc2)C(F)(F)F)c(C)c1 [Compound I-83] | 1 to 10 | 1000 to 10000
45 | CNS(=O)(=O)c1cnc(-c2cncc(Cl)c2)cc1Oc1c(C)cc(C)cc1C [Compound I-84] | < 25 | ≥ 25000
46 | Cc1cc(C)c(Oc2nc(-c3cncc(Cl)c3)ccc2S(=O)(=O)N(C)Cc2ccccc2)c(C)c1 [Compound I-85] | > 25 | ≥ 25000
47 | Cc1cc(C)c(Oc2nc(-c3cncc(Cl)c3)ccc2S(=O)(=O)NCc2ccccn2)c(C)c1 [Compound I-86] | < 25 | 1000 to 10000
48 | Cc1cc(C)c(Oc2nc(-c3cncc(Cl)c3)ccc2S(=O)(=O)NCc2cc(C(F)(F)F)ccn2)c(C)c1 [Compound I-87] | > 25 | 1000 to 10000
49 | Cc1cc(C)c(Oc2nc(-c3cncc(Cl)c3)ccc2S(=O)(=O)NCc2ccccc2)c(C)c1 [Compound I-88] | 1 to 10 | 1000 to 10000
50 | CNS(=O)(=O)c1ncc(-c2cncc(Cl)c2)nc1Oc1c(C)cc(C)c(Cl)c1C [Compound I-89] | > 25 | < 25000
51 | Cc1cc(C)c(Oc2nc(-c3cncc(Cl)c3)cnc2S(N)(=O)=O)c(C)c1Cl [Compound I-90] | 1 to 10 | < 1000
52 | CNS(=O)(=O)c1ccc(N2CCN(C)C(=O)C2)nc1Oc1c(C)cc(C)cc1C [Compound I-92] | > 25 | 1000 to 10000
53 | Cc1cc(C)c(Oc2nc(-c3cncc(Cl)c3)ncc2S(N)(=O)=O)c(C)c1Cl [Compound I-93] | 1 to 10 | < 25000
54 | Cc1cc(C)c(Oc2nc(-c3cncc(Cl)c3)ccc2S(=O)(=O)Nc2cnn(C)c2)c(C)c1 [Compound I-94] | 1 to 10 | 1000 to 10000
